Target: BexImpX (Pseudobdellovibrio exovorus, UniProt M4VA25)
Test: inhibition of riboflavin uptake in E. coli expressing impX, fluorescence
Type: cell-based
Conditions: read-out: % inhibition at 0.9 mM

NC(=O)c1cccnc1 [nicotinamide]
inhibition at 900 µM: < 5%

Cc1ncc(C[n+]2csc(CCOP(=O)(O)OP(=O)(O)O)c2C)c(N)n1 [thiamine pyrophosphate]
inhibition at 900 µM: < 5%

— paper PMC7064401 (Journal of molecular microbiology and biotechnology, 2019)
